The assay deals with T1, PD brain-derived alpha-synuclein aggregates (Homo sapiens, UniProt P37840).
T1 construct: PD brain-derived alpha-synuclein aggregates were spotted onto microarray slides; from tissue; host or cells: human Parkinson's disease patient brain
The assay is described as follows: Micro-radiobinding competition assay for the determination of binding affinity. The conditions noted are these: for Ki: concentration range 0.05 nM to 2 μM, nonlinear regression, one site specific binding model; for inhibition at 0.1 µM: read-out: Competition at 100 nM (%); for inhibition at 1 µM: read-out: Competition at 1 μM (%). On the procedure: Micro-Radiobinding Competition Assay for the Determination of Binding Affinity
PD brain-derived alpha-synuclein aggregates were spotted onto microarray slides. The slides were incubated with tritiated reference alpha-synuclein ligand at 20 nM or 30 nM and the example compounds (non-radiolabelled) at 1 μM and 100 nM. In some cases, the non-radiolabelled example compounds were further assessed for a range of different concentrations, varying from 0.05 nM to 2 μM. After incubation, slides were washed and scanned by a real-time autoradiography system (BeaQuant, ai4R). Quantification of the signal was performed by using the Beamage image analysis software (ai4R). Non-specific signal was determined with an excess of non-radiolabelled reference alpha-synuclein ligand (2 μM) and specific binding was calculated by subtracting the non-specific signal from the total signal. Competition was calculated as percent, where 0% was defined as the specific binding in the presence of vehicle and 100% as the values obtained in the presence of excess of the non-radiolabelled reference alpha-synuclein ligand. Ki values were calculated in GraphPad Prism7 by applying a nonlinear regression curve fit using a one site, specific binding model. All measurements were performed with at least two technical replicates.
Table 4: Assessment of binding affinity by micro-radiobinding competition assay on human PD brain-derived alpha-synuclein aggregates.

Setting [1] is: non-radiolabelled example compound at 100 nM, competition with tritiated reference alpha-synuclein ligand (20 nM or 30 nM), 100% = excess non-radiolabelled reference ligand.
Where [2] appears, read: non-radiolabelled example compound at 1 μM, competition with tritiated reference alpha-synuclein ligand (20 nM or 30 nM), 100% = excess non-radiolabelled reference ligand.

Where two headings read alike, the source gives them in different places.

Usually Ki stands for the equilibrium dissociation constant of an inhibitor or competing ligand from its target. Low values mean a stronger hold on the target, high ones a looser hold on the target. The compound `O=C1c2cn(-c3ccc(N4CC[C@H](F)C4)nn3)nc2CN1c1cccnc1` [Example 24, (S)-2-(6-(3-fluoropyrrolidin-1-yl)pyridazin-3-yl)-5-(pyridin-3-yl)-5,6-dihydropyrrolo[3,4-c]pyrazol-4(2H)-one] displayed a Ki of 236 nM. The inhibition at 0.1 µM under setting [1] is 30%. In addition, the inhibition at 1 µM under setting [2] worked out at 77%.

Compound `COc1cncc(N2Cc3nn(-c4ccc(N5CC[C@@H](F)C5)nn4)cc3C2=O)c1` [Example 23, (R)-2-(6-(3-fluoropyrrolidin-1-yl)pyridazin-3-yl)-5-(5-methoxypyridin-3-yl)-5,6-dihydropyrrolo[3,4-c]pyrazol-4(2H)-one] came in with a Ki of 182 nM. Also, the inhibition at 0.1 µM under setting [1] amounted to 65%. Further, under setting [2], the inhibition at 1 µM was determined as 76%.

On to `O=C1c2cn(-c3ccc(N4CC[C@@H](F)C4)nn3)nc2CN1c1ccns1` [Example 31, (R)-2-(6-(3-fluoropyrrolidin-1-yl)pyridazin-3-yl)-5-(isothiazol-5-yl)-5,6-dihydropyrrolo[3,4-c]pyrazol-4(2H)-one], for which the inhibition at 0.1 µM under setting [1] was determined as 71%. Also, under setting [2], the inhibition at 1 µM came to 86%.

`O=C1c2cn(-c3ccc(N4CCCC(F)CC4)nn3)nc2CN1c1cccnc1` (stereo not drawn) [Example 28, 2-(6-(4-fluoroazepan-1-yl)pyridazin-3-yl)-5-(pyridin-3-yl)-5,6-dihydropyrrolo[3,4-c]pyrazol-4(2H)-one]: the inhibition at 0.1 µM under setting [1] turned out to be 17%. Under setting [2], the inhibition at 1 µM stood at 51%.

As to `Cc1ccc(N2Cc3nn(-c4ccc(N5CC[C@H](F)C5)nn4)cc3C2=O)cn1` [Example 30, (S)-2-(6-(3-fluoropyrrolidin-1-yl)pyridazin-3-yl)-5-(6-methylpyridin-3-yl)-5,6-dihydropyrrolo[3,4-c]pyrazol-4(2H)-one], the inhibition at 0.1 µM under setting [1] turned out to be 4%. The inhibition at 1 µM under setting [2] amounted to 39%.

As for `O=C1c2cn(-c3cnc(N4CC[C@H](F)C4)cn3)nc2CN1c1cccnc1` [Example 2, (S)-2-(5-(3-fluoropyrrolidin-1-yl)pyrazin-2-yl)-5-(pyridin-3-yl)-5,6-dihydropyrrolo[3,4-c]pyrazol-4(2H)-one], the inhibition at 0.1 µM was found to be 74% and the inhibition at 1 µM is 98%.

In turn, `Cn1cc(N2Cc3nn(-c4cnc(N5CCCCC(F)C5)cn4)cc3C2=O)cn1` (stereo not drawn) [Example 8, 2-(5-(3-fluoroazepan-1-yl)pyrazin-2-yl)-5-(1-methyl-1H-pyrazol-4-yl)-5,6-dihydropyrrolo[3,4-c]pyrazol-4(2H)-one] registered a Ki of 33 nM. Also, the inhibition at 0.1 µM under setting [1] was determined as 45%. The inhibition at 1 µM under setting [2] came out at 78%.

`Cc1ccc(N2Cc3nn(-c4cnc(N5CC[C@@H](F)C5)cn4)cc3C2=O)cn1` [Example 17, (R)-2-(5-(3-fluoropyrrolidin-1-yl)pyrazin-2-yl)-5-(6-methylpyridin-3-yl)-5,6-dihydropyrrolo[3,4-c]pyrazol-4(2H)-one]: the inhibition at 0.1 µM under setting [1] was determined as 46%. Further, under setting [2], the inhibition at 1 µM was found to be 91%.

Regarding `O=C1c2cn(-c3ccc(N4CC[C@H](F)C4)nn3)nc2CN1c1ccns1` [Example 32, (S)-2-(6-(3-fluoropyrrolidin-1-yl)pyridazin-3-yl)-5-(isothiazol-5-yl)-5,6-dihydropyrrolo[3,4-c]pyrazol-4(2H)-one], the inhibition at 0.1 µM under setting [1] was 61%. Also, under setting [2], the inhibition at 1 µM was 77%.

For `Cl.O=C1c2cn(-c3cnc(N4CC[C@@H](F)C4)nc3)nc2CN1c1cccnc1` [Example 37, 2-2-[(3R)-3-fluoropyrrolidin-1-yl]pyrimidin-5-yl-5-(pyridin-3-yl)-2H,4H,5H,6H-pyrrolo[3,4-c]pyrazol-4-one hydrochloride], the Ki was 356 nM. Also, the “Competition at 100 nM (%)” value under setting [1] worked out at 32%. Moreover, the “Competition at 1 μM (%)” value under setting [2] stood at 78%.

As to `COc1cncc(N2Cc3nn(-c4cnc(N5CC(F)C5)cn4)cc3C2=O)c1` [Example 11, 2-(5-(3-fluoroazetidin-1-yl)pyrazin-2-yl)-5-(5-methoxypyridin-3-yl)-5,6-dihydropyrrolo[3,4-c]pyrazol-4(2H)-one], the inhibition at 0.1 µM came to 41% and the inhibition at 1 µM turned out to be 69%.

Consider `O=C1c2cn(-c3cnc(N4CCCCC(F)C4)cn3)nc2CN1c1cccnc1` (stereo not drawn) [Example 5, 2-(5-(3-fluoroazepan-1-yl)pyrazin-2-yl)-5-(pyridin-3-yl)-5,6-dihydropyrrolo[3,4-c]pyrazol-4(2H)-one], for which the inhibition at 0.1 µM under setting [1] worked out at 39%. Moreover, the inhibition at 1 µM under setting [2] was found to be 68%.

Take `COc1cncc(N2Cc3nn(-c4ccc(N5CC[C@H](F)C5)nn4)cc3C2=O)c1` [Example 27, (S)-2-(6-(3-fluoropyrrolidin-1-yl)pyridazin-3-yl)-5-(5-methoxypyridin-3-yl)-5,6-dihydropyrrolo[3,4-c]pyrazol-4(2H)-one]: under setting [1], the inhibition at 0.1 µM is 50%. Besides, the inhibition at 1 µM under setting [2] was 57%.

With `Cc1ccc(N2Cc3nn(-c4ccc(N5CC[C@@H](F)C5)nn4)cc3C2=O)cn1` [Example 29, (R)-2-(6-(3-fluoropyrrolidin-1-yl)pyridazin-3-yl)-5-(6-methylpyridin-3-yl)-5,6-dihydropyrrolo[3,4-c]pyrazol-4(2H)-one], under setting [1], the inhibition at 0.1 µM was 15%. The inhibition at 1 µM under setting [2] was found to be 42%.

`COc1cncc(N2Cc3nn(-c4cnc(N5CC[C@H](F)C5)cn4)cc3C2=O)c1` [Example 10, (S)-2-(5-(3-fluoropyrrolidin-1-yl)pyrazin-2-yl)-5-(5-methoxypyridin-3-yl)-5,6-dihydropyrrolo[3,4-c]pyrazol-4(2H)-one]: the inhibition at 0.1 µM is 59% and the inhibition at 1 µM was determined as 82%.

Take `O=C1c2cn(-c3ccc(N4CC[C@H](F)C4)nn3)nc2CN1c1cncs1` [Example 25, (S)-2-(6-(3-fluoropyrrolidin-1-yl)pyridazin-3-yl)-5-(thiazol-5-yl)-5,6-dihydropyrrolo[3,4-c]pyrazol-4(2H)-one]: affinity was put at a Ki of 222 nM. Under setting [1], the inhibition at 0.1 µM came out at 17%. Further, under setting [2], the inhibition at 1 µM came out at 73%.

As to `Cn1cc(N2Cc3nn(-c4ccc(N5CC[C@H](F)C5)nn4)cc3C2=O)cn1` [Example 26, (S)-2-(6-(3-fluoropyrrolidin-1-yl)pyridazin-3-yl)-5-(1-methyl-1H-pyrazol-4-yl)-5,6-dihydropyrrolo[3,4-c]pyrazol-4(2H)-one], under setting [1], the inhibition at 0.1 µM was 8%. Also, the inhibition at 1 µM under setting [2] is 76%.

Take `O=C1c2cn(-c3ccc(N4CC[C@@H](F)C4)nn3)nc2CN1c1cncs1` [Example 22, (R)-2-(6-(3-fluoropyrrolidin-1-yl)pyridazin-3-yl)-5-(thiazol-5-yl)-5,6-dihydropyrrolo[3,4-c]pyrazol-4(2H)-one]: the inhibition at 0.1 µM under setting [1] is 30%.

In the case of `O=C1c2cn(-c3cnc(N4CC[C@@H](F)C4)cn3)nc2CN1c1cncs1` [Example 9, (R)-2-(5-(3-fluoropyrrolidin-1-yl)pyrazin-2-yl)-5-(thiazol-5-yl)-5,6-dihydropyrrolo[3,4-c]pyrazol-4(2H)-one], the affinity corresponds to a Ki of 10 nM and the inhibition at 0.1 µM came to 106%.

Regarding `O=C1c2cn(-c3cnc(N4CC[C@@H](F)C4)cn3)nc2CN1c1cccnc1` [Example 1, (R)-2-(5-(3-fluoropyrrolidin-1-yl)pyrazin-2-yl)-5-(pyridin-3-yl)-5,6-dihydropyrrolo[3,4-c]pyrazol-4(2H)-one], the inhibition at 0.1 µM under setting [1] is 89%. Besides, the inhibition at 1 µM under setting [2] came out at 95%.

For the compound `O=C1c2cn(-c3cnc(N4CC[C@H](F)C4)cn3)nc2CN1c1cncs1` [Example 12, (S)-2-(5-(3-fluoropyrrolidin-1-yl)pyrazin-2-yl)-5-(thiazol-5-yl)-5,6-dihydropyrrolo[3,4-c]pyrazol-4(2H)-one], the inhibition at 0.1 µM amounted to 50%.

Take `Cc1ccc(N2Cc3nn(-c4cnc(N5CC(F)C5)cn4)cc3C2=O)cn1` [Example 19, 2-(5-(3-fluoroazetidin-1-yl)pyrazin-2-yl)-5-(6-methylpyridin-3-yl)-5,6-dihydropyrrolo[3,4-c]pyrazol-4(2H)-one]: the inhibition at 0.1 µM under setting [1] came out at 44%. Further, the inhibition at 1 µM under setting [2] is 74%.

For `COc1cncc(N2Cc3nn(-c4cnc(N5CC[C@@H](F)C5)cn4)cc3C2=O)c1` [Example 7, (R)-2-(5-(3-fluoropyrrolidin-1-yl)pyrazin-2-yl)-5-(5-methoxypyridin-3-yl)-5,6-dihydropyrrolo[3,4-c]pyrazol-4(2H)-one], the inhibition at 0.1 µM turned out to be 48% and the inhibition at 1 µM came out at 69%.

On to `O=C1c2cn(-c3cnc(N4CC[C@H](F)C4)nc3)nc2CN1c1cccnc1` [Example 36, 2-2-[(3S)-3-fluoropyrrolidin-1-yl]pyrimidin-5-yl-5-(pyridin-3-yl)-2H,4H,5H,6H-pyrrolo[3,4-c]pyrazol-4-one], for which the “Competition at 100 nM (%)” value under setting [1] came to 37%. The “Competition at 1 μM (%)” value under setting [2] was 64%.

(Values after patent US20250042905A1, “DIHYDROPYRROLO[3,4-C]PYRAZOLE DERIVATIVES AND THEIR USE IN DIAGNOSIS” (AC IMMUNE SA, priority 2021, published 2025).)
